These results are taken from ChEMBL document CHEMBL1201862, “PubChem BioAssay data set” (2004).

Each structure is given as a SMILES string. Activity calls are given as the source filed them.

In one data set the target is Cytochrome P450 2C9 (Homo sapiens, UniProt P11712).
For a further data set, the target named is T1, Aminopeptidase N (Plasmodium falciparum FcB1/Columbia, UniProt O96935).
T1 sequence (O96935 whole entry): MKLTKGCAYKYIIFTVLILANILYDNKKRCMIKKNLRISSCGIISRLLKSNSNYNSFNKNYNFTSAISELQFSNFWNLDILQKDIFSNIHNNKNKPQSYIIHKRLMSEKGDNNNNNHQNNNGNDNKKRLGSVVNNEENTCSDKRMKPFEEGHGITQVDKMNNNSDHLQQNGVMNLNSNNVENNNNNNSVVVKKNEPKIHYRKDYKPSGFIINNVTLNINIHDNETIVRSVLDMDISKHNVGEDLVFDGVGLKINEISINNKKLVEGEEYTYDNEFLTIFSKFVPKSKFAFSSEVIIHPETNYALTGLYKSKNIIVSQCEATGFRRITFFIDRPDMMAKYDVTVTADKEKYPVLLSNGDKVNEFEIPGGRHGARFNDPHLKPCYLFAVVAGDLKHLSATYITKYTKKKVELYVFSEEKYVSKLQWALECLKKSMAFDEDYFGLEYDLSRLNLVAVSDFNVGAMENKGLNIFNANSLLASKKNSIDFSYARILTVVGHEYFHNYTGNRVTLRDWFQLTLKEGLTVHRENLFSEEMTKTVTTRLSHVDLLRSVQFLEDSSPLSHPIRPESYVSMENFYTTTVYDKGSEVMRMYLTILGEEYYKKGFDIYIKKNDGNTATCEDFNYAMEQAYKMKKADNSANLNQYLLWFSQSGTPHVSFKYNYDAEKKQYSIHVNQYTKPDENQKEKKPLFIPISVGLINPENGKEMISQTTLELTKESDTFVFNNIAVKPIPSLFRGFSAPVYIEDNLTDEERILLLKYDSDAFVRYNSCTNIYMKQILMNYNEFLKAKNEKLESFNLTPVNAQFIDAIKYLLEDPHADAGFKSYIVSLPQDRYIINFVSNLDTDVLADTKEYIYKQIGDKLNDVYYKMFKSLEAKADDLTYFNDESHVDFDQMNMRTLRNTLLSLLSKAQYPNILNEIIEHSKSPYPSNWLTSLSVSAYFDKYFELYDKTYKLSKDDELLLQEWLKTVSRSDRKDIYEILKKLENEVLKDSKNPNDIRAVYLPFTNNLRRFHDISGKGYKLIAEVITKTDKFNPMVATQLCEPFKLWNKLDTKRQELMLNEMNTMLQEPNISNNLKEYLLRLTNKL
Briefly: P. falciparum M1AAP inhibitors, biochemical, fluorogenic H-Leu-NHMec substrate, 1536-well (AID 1445). Set-up: species or system Plasmodium falciparum 3D7, 3D7.

The target of data set [1] is T2, RNA-binding protein pos-1 (Caenorhabditis elegans, UniProt G5EF15).
T2 sequence (G5EF15 whole entry): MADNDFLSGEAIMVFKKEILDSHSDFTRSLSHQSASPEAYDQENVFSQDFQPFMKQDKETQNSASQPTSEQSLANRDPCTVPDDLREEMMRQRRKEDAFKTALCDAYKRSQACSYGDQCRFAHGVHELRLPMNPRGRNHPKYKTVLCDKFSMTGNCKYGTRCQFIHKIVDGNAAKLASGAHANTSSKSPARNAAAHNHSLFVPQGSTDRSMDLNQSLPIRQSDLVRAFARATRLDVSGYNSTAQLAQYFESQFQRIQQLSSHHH
The data set can be described thus: inhibitors of POS-1/mex-3 RNA binding, dose response, biochemical, fluorescence polarization (AID 1964).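 Also: purified POS-1 fused to maltose binding protein made in E. coli; potency of compounds blocking POS-1 binding to fluorescent RNA.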

Data set [2] deals with T3, Zinc finger protein mex-5 (Caenorhabditis elegans, UniProt Q9XUB2).
T3 sequence (Q9XUB2 whole entry): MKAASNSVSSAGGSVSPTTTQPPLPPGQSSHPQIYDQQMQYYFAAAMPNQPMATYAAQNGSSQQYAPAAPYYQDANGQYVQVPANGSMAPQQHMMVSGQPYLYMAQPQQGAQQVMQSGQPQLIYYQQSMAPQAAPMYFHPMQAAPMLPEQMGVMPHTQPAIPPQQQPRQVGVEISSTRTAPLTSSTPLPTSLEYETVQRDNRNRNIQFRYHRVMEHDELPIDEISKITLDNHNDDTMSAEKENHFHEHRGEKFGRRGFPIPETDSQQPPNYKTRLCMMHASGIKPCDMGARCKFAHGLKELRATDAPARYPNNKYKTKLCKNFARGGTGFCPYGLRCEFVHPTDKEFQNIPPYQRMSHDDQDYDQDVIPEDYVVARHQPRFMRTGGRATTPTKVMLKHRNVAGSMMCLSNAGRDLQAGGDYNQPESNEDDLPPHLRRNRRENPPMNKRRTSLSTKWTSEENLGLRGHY
Briefly: MEX-5/TCR-2 RNA interaction inhibitors, dose response, biochemical, C. elegans, fluorescence polarization (AID 1960). A general note: Fluorescence polarisation rises when a labelled molecule tumbles more slowly, as on binding a larger partner.

The target in another data set is Prothrombin (Homo sapiens, UniProt P00734). Briefly: Thrombin 1536 HTS Dose Response Confirmation. [Related pubchem assays: 1046 (Thrombin 1536 HTS; hits were confirmed in this assay)]. Type of data set: functional.
The nature of data set [3]: A cytotoxicity screen of small molecule inhibitors of the PhoP region in Salmonella typhi identified in the primary screen. [Related pubchem assays: 1850, 1864, 1985 ]. Type of data set: functional.
Another data set has as its target Cytochrome P450 3A4 (Homo sapiens, UniProt P08684).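 Also: CYP3A4 tested as one member of a cytochrome P450 panel screen.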
The nature of data set [4]: NIH-3T3 fibroblast cytotoxicity, dose response, cytotoxicity control, cell-based, fluorescence, Alamar Blue, secondary assay (AID 2327).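 Also: NIH-3T3 mouse fibroblasts cultured with fluconazole at 8 µg/mL.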 Type of data set: functional. A general note: The colour change of resazurin is a common sign of viable cells or microbes.
The subject of data set [5] is BJ. The data set can be described thus: cytotoxicity toward BJ-TERT fibroblasts, dose response, cell-based, RAS-independent, luminescence (AID 1933). The class given is functional. The note with it: Homo sapiens.
Data set [6] deals with BJ. Briefly: cells. Type of data set: functional, cell-based. The note with it: Homo sapiens.
Data set [7] in a line: C. albicans growth with fluconazole, confirmation, fluorescence, retest (AID 2467). Type of data set: functional, cell-based.
Data set [8] concerns BJ. The data set can be described thus: cytotoxicity toward BJ-TERT-LT-ST fibroblasts, dose response, cell-based, RAS-independent, luminescence (AID 1935).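 Also: BJ fibroblasts immortalized with TERT plus LT and ST oncogenes.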 Type of data set: functional. The conditions noted are these: Homo sapiens.
The nature of data set [9]: cytotoxicity toward DRD oncogenic fibroblasts, dose response, cell-based, non-viral oncogenic, luminescence (AID 1934). The conditions noted are these: Homo sapiens. Type of data set: functional.
A short description of data set [10]: cytotoxicity in HEK-293T cells, dose response, cytotoxicity control for TCR NF-kB inhibitor project, luminescence, T-cell screen hits (AID 489026).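 Also: cells exposed to compound about 14 hours before the viability readout.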 The class given is functional, cell-based.
A further data set concerns the target Nonstructural protein 1 (Influenza A virus, UniProt Q194T2). Type of data set: functional, Influenza A virus (A/California/07/2009(H1N1)).
The target in data set [11] is T4, Polyadenylate-binding protein 1 (Homo sapiens, UniProt P11940). The data set can be described thus: PABP1 MLLE–PAM2 interaction inhibitors, dose response, miRNA deadenylation inhibitor project, biochemical, fluorescence polarization, Cy5-PAM2 peptide, secondary (AID 602260). The class given is functional. The conditions noted are these: read-out: IC50_Mean.
The target of data set [12] is T4, Polyadenylate-binding protein 1. The data set can be described thus: PABP1 MLLE–PAM2 binding inhibitor potency, dose response, biochemical, fluorescence polarization, FITC-PAM2 peptide (AID 602259). The class given is functional. The conditions noted are these: read-out: IC50_Mean.
For a further data set, the target named is T5, Protein skinhead-1 (Caenorhabditis elegans, UniProt P34707).
T5 sequence (P34707 whole entry): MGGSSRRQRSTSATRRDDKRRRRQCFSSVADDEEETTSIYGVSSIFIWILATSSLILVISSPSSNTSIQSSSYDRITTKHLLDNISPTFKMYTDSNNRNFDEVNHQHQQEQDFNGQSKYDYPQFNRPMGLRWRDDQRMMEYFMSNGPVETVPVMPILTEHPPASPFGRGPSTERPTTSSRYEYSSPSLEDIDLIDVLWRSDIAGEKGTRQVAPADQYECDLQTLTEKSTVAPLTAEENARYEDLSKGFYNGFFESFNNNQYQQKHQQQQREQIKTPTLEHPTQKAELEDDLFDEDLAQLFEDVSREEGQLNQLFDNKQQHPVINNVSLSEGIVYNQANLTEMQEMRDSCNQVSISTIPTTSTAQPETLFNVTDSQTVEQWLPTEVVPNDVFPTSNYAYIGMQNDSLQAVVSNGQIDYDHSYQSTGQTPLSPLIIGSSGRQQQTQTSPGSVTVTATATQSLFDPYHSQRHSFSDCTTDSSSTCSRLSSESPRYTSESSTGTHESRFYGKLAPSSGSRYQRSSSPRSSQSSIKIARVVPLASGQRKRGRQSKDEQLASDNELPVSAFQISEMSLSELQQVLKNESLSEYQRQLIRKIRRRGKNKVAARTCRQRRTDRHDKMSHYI
The class given is functional.

For data set [13], the target named is T6, Ubiquitin-conjugating enzyme E2 N (Homo sapiens, UniProt P61088).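 Also: Dose-response confirmation in a TR-FRET assay detecting UBC13-driven polyubiquitin chain formation, inhibition measured.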
T6 sequence (P61088 whole entry): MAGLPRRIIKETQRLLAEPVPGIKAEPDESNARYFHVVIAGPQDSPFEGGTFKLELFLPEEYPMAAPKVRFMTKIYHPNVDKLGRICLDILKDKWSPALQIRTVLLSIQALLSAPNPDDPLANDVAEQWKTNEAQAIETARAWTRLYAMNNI
The class given is functional.

Data set [14] has as its target T7, DNA repair protein RAD52 homolog (Homo sapiens, UniProt P43351).
T7 sequence (P43351 whole entry): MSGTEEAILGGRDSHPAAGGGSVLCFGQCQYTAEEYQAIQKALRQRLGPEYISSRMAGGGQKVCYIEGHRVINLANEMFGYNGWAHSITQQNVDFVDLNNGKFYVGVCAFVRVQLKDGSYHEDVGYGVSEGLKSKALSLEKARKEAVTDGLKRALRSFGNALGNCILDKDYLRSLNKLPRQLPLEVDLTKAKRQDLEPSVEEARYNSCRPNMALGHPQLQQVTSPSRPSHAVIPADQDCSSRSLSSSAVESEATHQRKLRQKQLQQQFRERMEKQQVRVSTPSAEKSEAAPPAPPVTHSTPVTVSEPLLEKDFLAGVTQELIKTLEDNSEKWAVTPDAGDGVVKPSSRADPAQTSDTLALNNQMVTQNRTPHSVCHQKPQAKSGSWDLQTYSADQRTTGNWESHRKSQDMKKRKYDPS
Type of data set: functional, biochemical.

Chain of Nonstructural protein 1 (Q194T2 whole entry): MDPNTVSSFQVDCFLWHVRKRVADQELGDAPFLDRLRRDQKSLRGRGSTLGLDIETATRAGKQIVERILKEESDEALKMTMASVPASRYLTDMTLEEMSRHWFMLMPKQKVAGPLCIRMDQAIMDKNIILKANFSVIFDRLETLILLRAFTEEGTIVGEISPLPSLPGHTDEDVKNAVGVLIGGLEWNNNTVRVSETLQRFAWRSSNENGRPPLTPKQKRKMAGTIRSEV
Chain of Cytochrome P450 2C9 (P11712 whole entry): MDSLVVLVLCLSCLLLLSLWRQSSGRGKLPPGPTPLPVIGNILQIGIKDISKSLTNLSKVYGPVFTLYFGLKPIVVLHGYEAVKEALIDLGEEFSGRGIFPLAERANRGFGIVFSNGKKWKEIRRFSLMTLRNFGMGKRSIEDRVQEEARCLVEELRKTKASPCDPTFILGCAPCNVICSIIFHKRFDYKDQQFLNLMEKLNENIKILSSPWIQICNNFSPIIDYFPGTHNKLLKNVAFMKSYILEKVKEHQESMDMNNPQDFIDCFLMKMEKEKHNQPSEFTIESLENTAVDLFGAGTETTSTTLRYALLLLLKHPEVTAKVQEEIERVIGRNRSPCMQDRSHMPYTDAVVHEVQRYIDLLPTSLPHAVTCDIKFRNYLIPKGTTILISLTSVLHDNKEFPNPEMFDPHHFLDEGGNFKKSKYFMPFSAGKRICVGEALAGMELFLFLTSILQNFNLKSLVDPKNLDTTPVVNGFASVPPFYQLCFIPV
T4 sequence (P11940 whole entry): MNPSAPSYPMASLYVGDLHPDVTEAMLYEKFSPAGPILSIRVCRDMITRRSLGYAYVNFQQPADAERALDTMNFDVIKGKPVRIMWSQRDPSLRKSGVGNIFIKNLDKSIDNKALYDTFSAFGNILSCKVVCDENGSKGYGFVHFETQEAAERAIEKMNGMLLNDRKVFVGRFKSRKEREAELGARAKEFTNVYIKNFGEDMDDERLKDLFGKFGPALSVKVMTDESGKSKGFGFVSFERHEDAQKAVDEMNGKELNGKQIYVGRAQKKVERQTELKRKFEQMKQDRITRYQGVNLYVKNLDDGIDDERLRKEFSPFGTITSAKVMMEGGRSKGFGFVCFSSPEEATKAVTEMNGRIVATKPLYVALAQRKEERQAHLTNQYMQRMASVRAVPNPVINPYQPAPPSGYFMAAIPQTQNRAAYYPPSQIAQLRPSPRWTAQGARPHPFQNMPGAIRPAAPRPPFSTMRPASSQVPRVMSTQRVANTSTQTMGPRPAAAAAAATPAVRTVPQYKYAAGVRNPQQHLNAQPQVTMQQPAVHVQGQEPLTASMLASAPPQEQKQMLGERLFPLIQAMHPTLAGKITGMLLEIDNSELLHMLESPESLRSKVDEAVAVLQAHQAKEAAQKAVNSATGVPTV
Chain of Cytochrome P450 3A4 (P08684 whole entry): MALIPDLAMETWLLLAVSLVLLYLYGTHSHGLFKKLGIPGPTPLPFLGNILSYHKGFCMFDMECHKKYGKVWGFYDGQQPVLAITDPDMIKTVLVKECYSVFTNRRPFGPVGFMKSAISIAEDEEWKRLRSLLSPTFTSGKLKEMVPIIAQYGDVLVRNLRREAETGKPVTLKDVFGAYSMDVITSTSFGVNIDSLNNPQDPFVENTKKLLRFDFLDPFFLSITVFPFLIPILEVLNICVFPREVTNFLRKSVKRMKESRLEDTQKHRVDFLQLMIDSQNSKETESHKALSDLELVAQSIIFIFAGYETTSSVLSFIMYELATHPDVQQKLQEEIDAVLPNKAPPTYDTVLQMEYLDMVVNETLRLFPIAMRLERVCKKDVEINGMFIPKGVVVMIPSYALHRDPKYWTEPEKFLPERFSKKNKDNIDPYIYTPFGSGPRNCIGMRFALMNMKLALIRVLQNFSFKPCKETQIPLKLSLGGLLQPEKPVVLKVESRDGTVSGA

Turning to `Nc1ncnc2c1ncn2[C@@H]1CCCO1`, the AC50 (commonly the midpoint of the concentration-response curve, whichever way the signal moves) at Cytochrome P450 2C9 is “inconclusive”.

Take `COc1ccc(OC)c(C(=O)CN2C(=O)NC(C)(c3ccccc3)C2=O)c1` (centres undefined): the AC50 result at Cytochrome P450 2C9 is “inconclusive”.

In the case of `O=C1NC(=O)N(CCc2ccccc2)C(=O)/C1=C/NNC(=O)c1ccncc1`, the IC50 on Aminopeptidase N was 38.4 µM (active); against Prothrombin it was > 50 µM (not active). Further, the EC50 in [1] and in data set [2] was > 300 µM (not active) each time.

For the molecule `Cc1c(/C=N/NC(=O)c2ccc3c(c2)OCO3)cnn1C`, the EC50 (as a rule, the concentration giving half of the maximal effect) in data set [3] was > 50 µM (active). Also, on Cytochrome P450 3A4, the AC50 was 22.4 µM (inconclusive).

Take `COc1ccc(-[n+]2c(-c3ccccc3)cc(-c3ccc(C)cc3)cc2-c2ccccc2)cc1.[O-][Cl+3]([O-])([O-])[O-]`: the EC50 was 7.59 µM (active) in [4]; 3.39 µM (active) in the data set on BJ [5]; 5 µM (active) in the data set on BJ [6]; 0.037 µM (active) in data set [7]; 19.8 µM (active) with BJ [8]; 10 µM (inconclusive) in data set [9]. Also, the IC50 in data set [10] is > 80 µM (inactive).

As for `Cc1cc2cc(CN=C(S)Nc3ccc(OC(F)(F)F)cc3)ccc2n1C`, the IC50 at Nonstructural protein 1 was > 100 µM (active); in [11], > 66 µM (inactive); in data set [12] it was > 66 µM (inactive); on Protein skinhead-1 it was > 100 µM (inactive).

With `COc1cccc(C(=O)Nc2cccc(SC)c2)c1`, in data set [3], the EC50 is > 50 µM (active).

Take `COc1ccccc1CNCCc1ccc(F)cc1`: the EC50 in data set [3] is > 50 µM (active).

For `CN1CCC(CN)(N2CCN(c3ccccc3)CC2)CC1`, the IC50 in data set [13] was > 20 µM (inactive); on Nonstructural protein 1, > 100 µM (active). In addition, the AC50 in [14] is 23.1 µM (active).
